Test results as given in patent US20070128201A1, “Combined use of ecteinascidin-743 and platinum antineoplastic compounds” (Pharma Mar, S.A.U., priority 2003, published 2007).
Where two headings read alike, the source gives them in different places.

Key:
[1] = Toxicity of single i.v. doses of ET-743, DDP and their combination in xenograft experiments; assay type: in vivo; conditions: drug alone
Experimental: For the administration of the drugs appropriate vehicles were injected, using the same schedule and route of injection as the drug therapies. […] In xenografts transplanted s.c. tumor growth was monitored and tumor weight (TW) was determined by measuring the tumor diameters with a Vernier caliper every 2-4 days and using the formula TW=d^2×D/2 (where d and D represent the shortest and the longest diameter respectively).

[2] = Toxicity (body weight loss, toxic deaths) of split dose Q4×3; assay type: in vivo; conditions: Q4×3, 1A9 xenograft experiment
[3] = test system: HOC 8 human ovarian xenograft; experiment: Survival of mice bearing intraperitoneal HOC 8 xenograft; assay type: in vivo
Text: In ovarian carcinoma patients the tumor spreads into the peritoneal cavity. Therefore to mimic clinical disease we have selected a human ovarian xenograft, HOC 8, which was transplanted intraperitoneally from ascites and disseminated in the peritoneal cavity.
When the two drugs were combined the effect was much greater than that of each drug given as single agent with a dramatic increase in survival. […] Three animals were still alive after 12 months, two of them belonging to the group receiving the high ET-743 dose. They were sacrificed and a detailed macroscopic and microscopic pathological evaluation was performed. The mouse belonging to the group receiving the low ET-743 dose was apparently cured as the microscopic analysis of liver, splen, pancreas, bone marrow, diagram, ovary uterus omentum and several lymphnodes were negative.

[4] = Dose finding trial ET-743 day 1 & 8 followed by cisplatin: toxicity; assay type: in vivo, human
Experimental: We designed a multicenter dose finding trial, […], with escalating doses of ET given as a 3-hr infusion with steroids and antiemetic prophylaxis, followed 30 minutes later by 1 hr infusion cisplatin at a fixed dose of 40 mg/m^2, with 2 L NS hydration.
(§1) 36 patients were entered (15 with ovarian cancer, 6 with uterus cancer, 14 with soft tissue sarcoma, 1 with other tumor type). Prior treatments of the patients were the following:
ET-743 doses levels were 300, 400, 500, 600 and 700 μg/m^2/day; 3-6 were treated per dose level according to toxicity.
ET-743 escalation was uneventful until 500 μg/m^2; at 600 μg/m^2 patients were accrued in 2 separate risk cohort according to prior chemotherapy extent: low risk 1 regimen (LR); high risk ≧2 regimens (HR).

[5] = test system: Ovary, STS gyn, Uterus tumors; experiment: Dose finding trial ET-743 day 1 & 8 followed by cisplatin: observed efficacy; assay type: in vivo, human
Experimental: We designed a multicenter dose finding trial, on a day 1 & 8 every 3 weeks schedule, with escalating doses of ET given as a 3-hr infusion with steroids and antiemetic prophylaxis, followed 30 minutes later by 1 hr infusion cisplatin at a fixed dose of 40 mg/m^2, with 2 L NS hydration.
as §1
The following table illustrates the observed efficacy: […]

[6] = assay type: in vivo, human; conditions: ET-743 with carboplatin at a fixed target (300 mg/m^2), cycle 1 data from 11 patients
Experimental: We designed a multicenter dose finding trial, on a day 1 every 3 weeks schedule, with carboplatin given at a fixed dose of 300 mg/m^2 as a 1 hour infusion followed by escalating doses of ET given as a 3 hours infusion with steroids and antiemetic prophylaxis.
11 patients were entered (6 with ovarian cancer, 1 with lung cancer, 4 with soft tissue sarcoma). Prior treatments of the patients were the following:
ET-743 doses levels were 500, 650 and 800 μg/m^2/day; 3-6 pts were treated per dose level according to toxicity.
The maximum tolerated dose (MTD) was defined as the highest dose level tested of the combination at which at least 2 patients experience a DLT in cycle 1. If one patient encountered drug-induced DLT during either cycle 1 or 2, up to a maximum of 6 patients could be treated at that level. If DLT was not observed in the additional patients, new patients could be treated at the next higher dose level.

[7] = test system: human, murine and canine progenitor cells; conditions: cited from earlier work

Row | SMILES | maximal single i.v. dose that caused no toxic death [1] | mean body weight loss [2] | ILS ([3]; ET-743 0.15 mg/kg, Q4×3, monotherapy) | ILS ([3]; ET-743 0.05% (printed), Q4×3, monotherapy) | MTD ([4]; ET-743 with cisplatin 40 mg/m^2, previously treated patients, day 1 & 8 every 4 weeks) | Recommended dose (RD) ([4]; human, in vivo) | TTP ([5]; patient: Ovary, prior carboplatin + taxol (NC), topotecan (PD), ET-743 400 μg/m^2 D 1&8 + cisplatin, Lung) | TTP ([5]; patient: Ovary, prior carboplatin + taxol (NE), paclitaxel (PD), ET-743 600 μg/m^2 D 1&8 + cisplatin, Pelvis, liver) | BEST RESP ([5]; patient: Ovary, prior carboplatin + taxol (PR), ET-743 600 μg/m^2 D 1&8 + cisplatin, Liver Abdomen) | TTP ([5]; patient: STS gyn, prior adriamycin/ifosfamide (AD), ET-743 700 μg/m^2 D 1&8 + cisplatin, Lung) | TTP ([5]; patient: STS-gyn, prior epirubicin + ifosfamide (AD), gemcitabine (PD), ET-743 500 μg/m^2 D 1&8 + cisplatin, Abdomen) | BEST RESP ([5]; patient: STS-gyn, prior epirubicin + ifosfamide (AD), gemcitabine (PD), ET-743 500 μg/m^2 D 1&8 + cisplatin, Abdomen, wrapped cell reads Radiological PR non measurable lesions) | TTP ([5]; patient: Uterus Colon, prior carboplatin (NE), taxol + epirubicin + cisplatin (CR), ET-743 400 μg/m^2 D 1&8 + cisplatin, Bone, Pelvis, Lung) | BEST RESP ([5]; patient: Uterus Colon, prior carboplatin (NE), taxol + epirubicin + cisplatin (CR), ET-743 400 μg/m^2 D 1&8 + cisplatin, Bone, Pelvis, Lung, wrapped cell reads Radiological PR non measurable lesions) | MTD [6] | sensitivity of hematopoietic progenitors [7] | ILS ([3]; DDP monotherapy)
1 | COc1cc2c(cc1O)CCN[C@]21CS[C@@H]2c3c(OC(C)=O)c(C)c4c(c3[C@H](COC1=O)N1C2[C@H]2c3c(cc(C)c(OC)c3O)C[C@@H]([C@@H]1O)N2C)OCO4 (some centres unmarked) [ET-743, ecteinascidin-743] | 0.2 mg/kg | 14% | 23% | 21% | 700 μg/m^2 | 500 μg/m^2 | 6 mos | 6+ mos | Unc PR | 3+ mos | 5+ mos | Radiological | 1 mos | Radiological | 800 μg/m^2 | equal sensitivity of erythropoid and myeloid cells | –
2 | N.N.[Cl][Pt][Cl] [DDP, cis-diaminedichloroplatinum (II), reference compound] | – | – | – | – | – | – | – | – | – | – | – | – | – | – | – | – | 139%
